This passage reports IC50 results from US6723722B1, “Acylhydrazine derivatives, their production and use” (Takeda Chemical Industries, Ltd., priority 1999, dated 2004).

SMILES strings stand for the structures.

This test deals with human FXa (Homo sapiens, UniProt P00742). Put plainly: Human activated coagulation factor X (FXa) inhibiting effect. The settings on record: concentration at which the FXa effect was inhibited by 50%; substrate S-2765, 37° C., absorbance at 405 nm. The format is biochemical. Here is the method:
(1) Human Activated Coagulation Factor X (FXa) Inhibiting Effect
Method: A cuvette was charged with 225 μl of 0.05 M tris buffer (pH 8.3) containing 0.145 M sodium chloride and 2 mM calcium chloride, 5 μl of a sample (test compound dissolved in dimethyl sulfoxide) and 10 μl of human FXa (0.3 unit/ml), which were reacted at 37° C. for 10 minutes and then combined with 10 μl of a substrate (3 mM, S-2765) and further reacted at 37° C. for 10 minutes. hen the reaction was terminated by adding 25 μl of 50% aqueous acetic acid, and the change in the absorbance at 405 nm was determined using a spectrophotometer to calculate the concentration at which the FXa effect was inhibited by 50% (IC50)

Sequence of human FXa (P00742 235-488 limits assumed): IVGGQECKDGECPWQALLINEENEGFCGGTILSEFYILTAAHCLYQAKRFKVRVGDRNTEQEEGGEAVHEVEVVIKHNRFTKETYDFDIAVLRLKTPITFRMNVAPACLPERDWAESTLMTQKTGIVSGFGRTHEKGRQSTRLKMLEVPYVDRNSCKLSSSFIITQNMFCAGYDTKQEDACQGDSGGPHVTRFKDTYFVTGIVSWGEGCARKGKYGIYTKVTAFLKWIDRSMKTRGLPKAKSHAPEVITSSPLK
Sequence of human FXa (P00742 41-179 partner limits assumed): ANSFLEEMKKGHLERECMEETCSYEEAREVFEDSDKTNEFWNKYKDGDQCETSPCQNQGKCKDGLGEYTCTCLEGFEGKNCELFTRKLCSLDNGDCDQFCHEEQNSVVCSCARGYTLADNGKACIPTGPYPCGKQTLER

Regarding `O=C1CN(S(=O)(=O)C2=Cc3ccc(Cl)cc3OC2)CCN1NC1CCN(c2ccncc2)CC1` [Example 6], 5.8 nM corresponded to half-maximal inhibition (IC50).
